Laboratory results from patent publication US9475817B2 (BRISTOL-MYERS SQUIBB COMPANY, priority 2012, dated 2016).

Columns and labels:
[1] = target: CK1ε (Homo sapiens (Human), UniProt P49674); assay: CK1ε kinase assay (Caliper LabChip, fluoresceinated peptide substrate); format: biochemical; conditions: 200 pM CK1ε, 50 μM ATP, 1.5 μM peptide substrate, 22 hours room temperature
Method: (§1) CK1ε and CK1δ Kinase Assays
(§2) The kinase assay was performed in V-bottom 384-well plates. […] The reaction was incubated at room temperature for 22 hours and terminated by adding 45 μl of 35 mM EDTA to each sample. […] Compounds were dissolved at 10 mM in dimethylsulfoxide (DMSO) and evaluated at eleven concentrations. IC50 values were derived by non-linear regression analysis.

[2] = target: CK1δ (Homo sapiens (Human), UniProt P48730); assay: CK1δ kinase assay (Caliper LabChip, fluoresceinated peptide substrate); format: biochemical; conditions: 200 pM CK1δ, 50 μM ATP, 1.5 μM peptide substrate, 22 hours room temperature
Method: as §1, §2

Sequence of CK1ε (P49674 whole entry): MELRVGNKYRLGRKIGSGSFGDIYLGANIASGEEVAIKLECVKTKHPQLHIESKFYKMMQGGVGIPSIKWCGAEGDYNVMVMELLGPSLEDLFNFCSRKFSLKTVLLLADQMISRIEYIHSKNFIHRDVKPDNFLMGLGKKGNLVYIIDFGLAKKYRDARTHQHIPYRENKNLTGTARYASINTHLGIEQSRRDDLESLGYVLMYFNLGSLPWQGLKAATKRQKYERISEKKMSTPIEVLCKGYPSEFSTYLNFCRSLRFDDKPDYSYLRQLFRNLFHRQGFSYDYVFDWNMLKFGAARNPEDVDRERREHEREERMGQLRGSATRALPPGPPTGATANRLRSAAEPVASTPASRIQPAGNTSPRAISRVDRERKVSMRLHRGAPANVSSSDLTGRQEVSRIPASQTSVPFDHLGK
Sequence of CK1δ (P48730 whole entry): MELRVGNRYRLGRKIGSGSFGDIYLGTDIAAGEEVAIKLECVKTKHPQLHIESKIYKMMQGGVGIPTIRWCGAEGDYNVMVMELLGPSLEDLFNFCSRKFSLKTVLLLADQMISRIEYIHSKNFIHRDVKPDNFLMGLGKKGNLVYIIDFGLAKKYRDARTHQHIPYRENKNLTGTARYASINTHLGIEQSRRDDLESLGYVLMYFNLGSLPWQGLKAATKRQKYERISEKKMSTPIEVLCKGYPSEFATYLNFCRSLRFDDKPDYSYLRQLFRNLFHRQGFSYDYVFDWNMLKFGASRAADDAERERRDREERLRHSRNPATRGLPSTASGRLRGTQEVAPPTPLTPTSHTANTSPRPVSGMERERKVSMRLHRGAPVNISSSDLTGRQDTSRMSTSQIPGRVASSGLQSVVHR

Row | IC50 [1] [nM] | IC50 [2] [nM] | Molecule
1 | 2 | 0.2 | Cn1nc(-c2ccc(F)cc2)c(-c2ccc3nc(NC(=O)c4ccnc(F)c4)cn3n2)c1C1CCOCC1 [Compound 196, 2-Fluoro-N-(6-(3-(4-fluorophenyl)-1-methyl-5-(tetrahydro-2H-pyran-4-yl)-1H-pyrazol-4-yl)imidazo[1,2-b]pyridazin-2-yl)isonicotinamide]
2 | 48.1 | 16 | Cn1cc(-c2ccc3nc(NC(=O)c4ncccn4)cn3n2)c(-c2ccc(F)cc2)n1 [Compound 29, N-(6-(3-(4-fluorophenyl)-1-methyl-1H-pyrazol-4-yl)imidazo[1,2-b]pyridazin-2-yl)pyrimidine-2-carboxamide]
3 | 6.8 | 1.9 | COc1cc(F)cc(C(=O)Nc2cn3nc(-c4cn(C)nc4-c4ccc(F)cc4)ccc3n2)c1 [Compound 45, 3-fluoro-N-(6-(3-(4-fluorophenyl)-1-methyl-1H-pyrazol-4-yl)imidazo[1,2-b]pyridazin-2-yl)-5-methoxybenzamide]
4 | 35 | 1.6 | Cn1nc(-c2ccc(F)cc2)c(-c2ccc3nc(NC(=O)c4ccnc(N5CCOCC5)c4)cn3n2)c1N1CCN(CCC(F)(F)F)CC1 [Compound 135, N-(6-(3-(4-Fluorophenyl)-1-methyl-5-(4-(3,3,3-trifluoropropyl)piperazin-1-yl)-1H-pyrazol-4-yl)imidazo[1,2-b]pyridazin-2-yl)-2-morpholinoisonicotinamide]
5 | 28.1 | 7.2 | Cn1cc(-c2ccc3nc(NC(=O)c4ccc(F)cc4)cn3n2)c(-c2ccc(F)cc2)n1 [Compound 62, 4-fluoro-N-(6-(3-(4-fluorophenyl)-1-methyl-1H-pyrazol-4-yl)imidazo[1,2-b]pyridazin-2-yl)benzamide]
6 | > 2000 | 51.5 | Cn1cc(-c2ccc3nc(NC(=O)OCc4ccccc4)cn3n2)c(-c2ccc(F)cc2)n1 [Compound 187, Benzyl 6-(3-(4-fluorophenyl)-1-methyl-1H-pyrazol-4-yl)imidazo[1,2-b]pyridazin-2-ylcarbamate]
7 | 114 | 14.6 | Cn1cc(-c2ccc3nc(NC(=O)Nc4ccccc4)cn3n2)c(-c2ccc(F)cc2)n1 [Compound 186, 1-(6-(3-(4-Fluorophenyl)-1-methyl-1H-pyrazol-4-yl)imidazo[1,2-b]pyridazin-2-yl)-3-phenylurea]
8 | 8.1 | 1 | Cn1nc(-c2ccc(F)cc2)c(-c2ccc3nc(NC(=O)c4ccncc4)cn3n2)c1N1CCN(C(=O)c2ccon2)CC1 [Compound 133, N-(6-(3-(4-Fluorophenyl)-5-(4-(isoxazole-3-carbonyl)piperazin-1-yl)-1-methyl-1H-pyrazol-4-yl)imidazo[1,2-b]pyridazin-2-yl)isonicotinamide]
9 | 40.9 | 6.9 | Cn1cc(-c2ccc3nc(NC(=O)c4ccc(OC(F)F)cc4F)cn3n2)c(-c2ccc(F)cc2)n1 [Compound 58, 4-(difluoromethoxy)-2-fluoro-N-(6-(3-(4-fluorophenyl)-1-methyl-1H-pyrazol-4-yl)imidazo[1,2-b]pyridazin-2-yl)benzamide]
10 | 9.9 | 3 | O=C(Nc1cn2nc(-c3cn(C4CC4)nc3-c3ccc(F)cc3)ccc2n1)c1ccncc1 [Compound 102, N-(6-(1-Cyclopropyl-3-(4-fluorophenyl)-1H-pyrazol-4-yl)imidazo[1,2-b]pyridazin-2-yl)isonicotinamide]
11 | 12.3 | 2.5 | Cc1nc(-c2cccnc2)sc1C(=O)Nc1cn2nc(-c3cn(C4CC4)nc3-c3ccc(F)cc3)ccc2n1 [Compound 109, N-(6-(1-cyclopropyl-3-(4-fluorophenyl)-1H-pyrazol-4-yl)imidazo[1,2-b]pyridazin-2-yl)-4-methyl-2-(pyridin-3-yl)thiazole-5-carboxamide]
12 | 2.7 | 0.3 | COCC(=O)N1CCC(c2c(-c3ccc4nc(NC(=O)c5ccnc(F)c5)cn4n3)c(-c3ccc(F)cc3)nn2C)CC1 [Compound 152, 2-fluoro-N-(6-(3-(4-fluorophenyl)-5-(1-(2-methoxyacetyl)piperidin-4-yl)-1-methyl-1H-pyrazol-4-yl)imidazo[1,2-b]pyridazin-2-yl) isonicotinamide]
13 | 44.9 | 14.4 | Cn1cc(-c2ccc3nc(NC(=O)c4ccc(F)c(C#N)c4)cn3n2)c(-c2ccc(F)cc2)n1 [Compound 56, 3-cyano-4-fluoro-N-(6-(3-(4-fluorophenyl)-1-methyl-1H-pyrazol-4-yl)imidazo[1,2-b]pyridazin-2-yl)benzamide]
14 | 3.7 | 0.74 | 2-fluoro-N-(6-(3-(4-fluorophenyl)-1- methyl-5-morpholino-1H-pyrazol-4-yl) imidazo[1,2-b]pyridazin-2-yl) isonicotinamide [Compound 144]
15 | 4.9 | 0.5 | Cc1nc(-c2cccnc2)sc1C(=O)Nc1cn2nc(-c3c(-c4ccc(F)cc4)nn(C)c3N3CCOCC3)ccc2n1 [Compound 146, N-(6-(3-(4-fluorophenyl)-1-methyl-5-morpholino-1H-pyrazol-4-yl)imidazo [1,2-b]pyridazin-2-yl)-4-methyl-2-(pyridin-3-yl)thiazole-5-carboxamide]
16 | 34.4 | 8.3 | Cn1cc(-c2ccc3nc(NC(=O)C45CC6CC(C)(CC(C)(C6)C4)C5)cn3n2)c(-c2ccc(F)cc2)n1 [Compound 94, (1,3,5S7)-N-(6-(3-(4-fluorophenyl)-1-methyl-1H-pyrazol-4-yl)imidazo[1,2-b]pyridazin-2-yl)-3,5-dimethyladamantane-1-carboxamide]
17 | 1.8 | 2.5 | Cc1nc(-c2cccnc2)sc1C(=O)Nc1cn2nc(-c3c(-c4ccc(F)cc4)nn(C)c3C3CCNCC3)ccc2n1 [Compound 174, N-(6-(3-(4-Fluorophenyl)-1-methyl-5-(piperidin-4-yl)-1H-pyrazol-4-yl)imidazo[1,2-b]pyridazin-2-yl)-4-methyl-2-(pyridin-3-yl)thiazole-5-carboxamide]
18 | 34.8 | 8 | Cn1cc(-c2ccc3nc(NC(=O)c4cnccc4C(F)(F)F)cn3n2)c(-c2ccc(F)cc2)n1 [Compound 63, N-(6-(3-(4-fluorophenyl)-1-methyl-1H-pyrazol-4-yl)imidazo[1,2-b]pyridazin-2-yl)-4-(trifluoromethyl) nicotinamide]
19 | 14.3 | 1.1 | Cc1nc(-c2ccncc2)sc1C(=O)Nc1cn2nc(-c3c(-c4ccc(F)cc4)nn(C)c3C3CCN(CCC(F)(F)F)CC3)ccc2n1 [Compound 181, N-(6-(3-(4-fluorophenyl)-1-methyl-5-(1-(3,3,3-trifluoropropyl)piperidin-4-yl)-1H-pyrazol-4-yl)imidazo[1,2-b]pyridazin-2-yl)-4-methyl-2-(pyridin-4-yl)thiazole-5-carboxamide]
20 | 22.9 | 6.3 | Cn1cc(-c2ccc3nc(NC(=O)c4cc(F)ccc4F)cn3n2)c(-c2ccc(F)cc2)n1 [Compound 51, 2,5-difluoro-N-(6-(3-(4-fluorophenyl)-1-methyl-1H-pyrazol-4-yl)imidazo[1,2-b]pyridazin-2-yl)benzamide]
21 | 10.1 | 1 | Cn1nc(-c2ccc(F)cc2)c(-c2ccc3nc(NC(=O)c4ccnc(N5CCOCC5)c4)cn3n2)c1N1CCN(C(=O)c2ccon2)CC1 [Compound 137, N-(6-(3-(4-Fluorophenyl)-5-(4-(isoxazole-3-carbonyl)piperazin-1-yl)-1-methyl-1H-pyrazol-4-yl)imidazo[1,2-b]pyridazin-2-yl)-2-morpholinoisonicotinamide]
